Measurements: patent publication US10494397B2, “Rebaudioside analogs” (PepsiCo, Inc., priority 2016, dated 2019)

How the values were obtained:
Tasters [1] = test: Sensory evaluation of test material as a sweetener (taster panel, scale of 1 to 10); format: in vivo, human; parameters: key: not observed or only minimally observed (−); highly observed (+++); conditions: for Sweet Intensity: averaged taster scores, scale 1 to 10 with Reb A 400 ppm = 5 and sucrose 6.5% = 10, noseclips, blinded; for Sweet Quality: based upon temporal profile (sweet onset, linger) and attributes such as syrupy, round, clean; for Bitterness: taster comments and scores converted into symbols
Text: Sample preparation protocol for testing material as a sweetener: Tasters wore noseclips and were blinded to the identity of the test material. Tasters sampled 400 ppm Rebaudioside A and 6.5 Brix sucrose prior to the test material. Reb A 400 ppm was assigned a 5 on the scale of 1 to 10 as shown in FIG. 8 and sucrose (6.5%) was assigned a 10 on the same scale. Tasters were asked to rinse their mouths 5 times with water between tasting each sample. Tasters were then given the test article and asked to rank the test article for sweetness on the noted scale. Tasters were also asked to provide comments about bitterness, linger, flavors, and any other perceptions.
Numerical scores from all tasters were averaged and, taken together with comments regarding sweet quality, bitterness and off-tastes, converted into the symbols “−,” “+,” “++,” and “+++” to indicate whether a given characteristic was not observed or only minimally observed (−) or highly observed (+++). For example, a sample having a “−” in both sweet intensity and bitterness should be understood as a sample having minimal or no sweetness and minimal or no bitter flavor. By contrast, a sample having a “+++” in both sweet intensity and bitterness should be understood as a sample having highly observed sweet intensity and bitterness.
Preparation of Reb A in this experiment: Prepare 400 ppm Reb A in water (pH=7): 40 mg of Rebaudioside A was dissolved with stirring in 100 ml of water at room temperature.
Preparation of Sucrose in this experiment: Prepare 6.5% Sucrose in water (pH=7): weight 6.5 gr of Sucrose and dissolve it in 93.5 gr water (total 100 gr)
• Sweet quality was based upon a temporal profile (sweet onset, linger) and attributes such as syrupy, round, clean.

Tasters [2] = test: Sweetness enhancement, Forced Choice Test; format: in vivo, human; parameters: key: not observed or only minimally observed (−); highly observed (+++); conditions: sweetener (4 Brix sucrose, 4 Brix HFCS or 200 ppm Rebaudioside A) with vs without test compound at a level below 1.5% SEV
Method: Sample preparation protocol: For testing the material as a sweet/flavor modifying ingredient, two samples were prepared: a 4° Brix high-fructose corn syrup (HFCS) control solution and a 4° Brix HFCS solution with a known concentration of test ingredient.
Sample Preparation: 4° Brix HFCS control solution was prepared by adding 50.89 grams of 78.60° Brix HFCS to 1000 g phosphoric acid base which was prepared by adding phosphoric acid dropwise into 1 L of Aquafina Water until pH 3.1 was obtained. pH was measured using a METTLER TOLEDO pH meter.
In the case of a different Brix of HFCS starting syrup, the following formula can be used for the amount of HFCS required to make HFCS control solution. 4° Brix/100*1000 mL/(78.5° Brix/100)=50.96
If any cloudiness persisted, the sample solution was passed through a paper filter. For some low soluble compounds, Branson 2800 Ultra Sonic Bath was used to dissolve the material. If any cloudiness persisted, the sample solution was passed through a paper filter. Solubility was confirmed by shining a laser pointer through the solution. If no diffraction was observed then it was assumed that the material was soluble
12-16 tasters were presented with these two(2) numbered samples: one contained a sweetener such as 4Brix sucrose, 4 Brix high-fructose corn syrup or 200 ppm Rebaudioside A in phosphate buffer. […]

SMILES | Sweet Intensity (Tasters [1]) | Sweet Quality (Tasters [1]) | Bitterness (Tasters [1]) | Enhancement (Tasters [2])
C=C1C[C@@]23CC[C@H]4[C@@](C)(CCC[C@@]4(C)C(=O)N[C@H](Cc4ccccc4)C(=O)OC)[C@@H]2CC[C@]1(O[C@@H]1O[C@H](CO)[C@@H](O)[C@H](O[C@@H]2O[C@H](CO)[C@@H](O)[C@H](O)[C@H]2O)[C@H]1O[C@@H]1O[C@H](CO)[C@@H](O)[C@H](O)[C@H]1O)C3 [Compound 5E1, Rebaudioside B- D-Phenylalanine Methyl ester] | − | − | +++ | 
C=C1C[C@@]23CC[C@H]4[C@@](C)(CCC[C@@]4(C)C(=O)O[C@@H]4O[C@H](CO)[C@@H](O)[C@H](O)[C@@H]4O)[C@@H]2CC[C@]1(O[C@@H]1O[C@H](CO)[C@@H](O)[C@H](O[C@@H]2O[C@H](CO)[C@@H](O)[C@H](O)[C@H]2O)[C@H]1O[C@@H]1O[C@H](CO)[C@@H](O)[C@H](O)[C@H]1O)C3 [Compound 7A, Rebaudioside B Mannoside] | +++ |  |  | 
C=C1C[C@@]23CC[C@H]4[C@@](C)(CCC[C@@]4(C)C(=O)N[C@@H](C(=O)O)C(C)C)[C@@H]2CC[C@]1(O[C@@H]1O[C@H](CO)[C@@H](O)[C@H](O[C@@H]2O[C@H](CO)[C@@H](O)[C@H](O)[C@H]2O)[C@H]1O[C@@H]1O[C@H](CO)[C@@H](O)[C@H](O)[C@H]1O)C3 [Compound 5D2] | +++ |  | − | 
C=C1C[C@@]23CC[C@H]4[C@@](C)(CCC[C@@]4(C)C(=O)NCC(=O)O)[C@@H]2CC[C@]1(O[C@@H]1O[C@H](CO)[C@@H](O)[C@H](O[C@@H]2O[C@H](CO)[C@@H](O)[C@H](O)[C@H]2O)[C@H]1O[C@@H]1O[C@H](CO)[C@@H](O)[C@H](O)[C@H]1O)C3 [Compound 5A2, Rebaudioside B-Glycine] | +++ |  |  | +++
OC[C@H]1O[C@@](CO)(O[C@H]2O[C@H](CO)[C@@H](O)[C@H](O)[C@H]2O)[C@@H](O)[C@@H]1O [Sucrose, reference compound] |  | +++ | − | 
C=C1C[C@@]23CC[C@H]4[C@@](C)(CCC[C@@]4(C)C(=O)O[C@@H]4O[C@H](CO)[C@H](O)[C@H](O)[C@H]4O)[C@@H]2CC[C@]1(O[C@@H]1O[C@H](CO)[C@@H](O)[C@H](O[C@@H]2O[C@H](CO)[C@@H](O)[C@H](O)[C@H]2O)[C@H]1O[C@@H]1O[C@@H](C)[C@H](O)[C@@H](O)[C@H]1O)C3 [Compound 7F, Rebaudioside C Galactoside] | − | − | − | 
C=C1C[C@@]23CC[C@H]4[C@@](C)(CCC[C@@]4(C)C(=O)N[C@@H](C(=O)OC)C(C)C)[C@@H]2CC[C@]1(O[C@@H]1O[C@H](CO)[C@@H](O)[C@H](O[C@@H]2O[C@H](CO)[C@@H](O)[C@H](O)[C@H]2O)[C@H]1O[C@@H]1O[C@H](CO)[C@@H](O)[C@H](O)[C@H]1O)C3 [Compound 5D1, Rebaudioside B- D-Valine Methyl ester] | − | − | +++ | 
C=C1C[C@@]23CC[C@H]4[C@@](C)(CCC[C@@]4(C)C(=O)O[C@@H]4OC[C@@H](O)[C@H](O)[C@H]4O)[C@@H]2CC[C@]1(O[C@@H]1O[C@H](CO)[C@@H](O)[C@H](O[C@@H]2O[C@H](CO)[C@@H](O)[C@H](O)[C@H]2O)[C@H]1O[C@@H]1O[C@H](CO)[C@@H](O)[C@H](O)[C@H]1O)C3 [Compound 7C, Rebaudioside B Xyloside] | +++ |  |  | 
C=C1C[C@@]23CC[C@H]4[C@@](C)(CCC[C@@]4(C)C(=O)O[C@@H]4O[C@H](CO)[C@@H](O)[C@H](O)[C@H]4O)[C@@H]2CC[C@]1(O[C@@H]1O[C@H](CO)[C@@H](O)[C@H](O[C@@H]2O[C@H](CO)[C@@H](O)[C@H](O)[C@H]2O)[C@H]1O[C@@H]1O[C@H](CO)[C@@H](O)[C@H](O)[C@H]1O)C3 [Rebaudioside A] | +++ |  |  | 
C=C1C[C@@]23CC[C@H]4[C@@](C)(CCC[C@@]4(C)C(=O)N[C@H](Cc4ccccc4)C(=O)O)[C@@H]2CC[C@]1(O[C@@H]1O[C@H](CO)[C@@H](O)[C@H](O[C@@H]2O[C@H](CO)[C@@H](O)[C@H](O)[C@H]2O)[C@H]1O[C@@H]1O[C@H](CO)[C@@H](O)[C@H](O)[C@H]1O)C3 [Compound 5E2] |  |  | − | 
C=C1C[C@@]23CC[C@H]4[C@@](C)(CCC[C@@]4(C)C(=O)O[C@@H]4OC[C@@H](O)[C@H](O)[C@H]4O)[C@@H]2CC[C@]1(O[C@@H]1O[C@H](CO)[C@@H](O)[C@H](O[C@@H]2O[C@H](CO)[C@@H](O)[C@H](O)[C@H]2O)[C@H]1O[C@@H]1O[C@@H](C)[C@H](O)[C@@H](O)[C@H]1O)C3 [Compound 7E, Rebaudioside C Xyloside] | − | − | − | 
C=C1C[C@@]23CC[C@H]4[C@@](C)(CCC[C@@]4(C)C(=O)N[C@@H](C)C(=O)OC)[C@@H]2CC[C@]1(O[C@@H]1O[C@H](CO)[C@@H](O)[C@H](O[C@@H]2O[C@H](CO)[C@@H](O)[C@H](O)[C@H]2O)[C@H]1O[C@@H]1O[C@H](CO)[C@@H](O)[C@H](O)[C@H]1O)C3 [Compound 5B1, Rebaudioside B- L-Alanine Methyl ester] |  | − | +++ | 
C=C1C[C@@]23CC[C@H]4[C@@](C)(CCC[C@@]4(C)C(=O)NCC(=O)OC)[C@@H]2CC[C@]1(O[C@@H]1O[C@H](CO)[C@@H](O)[C@H](O[C@@H]2O[C@H](CO)[C@@H](O)[C@H](O)[C@H]2O)[C@H]1O[C@@H]1O[C@H](CO)[C@@H](O)[C@H](O)[C@H]1O)C3 [Compound 5A1, Rebaudioside B—Glycine Methyl ester] | − | − | +++ | 
C=C1C[C@@]23CC[C@H]4[C@@](C)(CCC[C@@]4(C)C(=O)O[C@@H]4O[C@H](CO)[C@@H](O)[C@H](O)[C@H]4O[C@@H]4O[C@H](CO)[C@@H](O)[C@H](O)[C@H]4O)[C@@H]2CC[C@]1(O[C@@H]1O[C@H](CO)[C@@H](O)[C@H](O[C@@H]2O[C@H](CO)[C@@H](O)[C@H](O)[C@H]2O)[C@H]1O[C@@H]1O[C@@H](C)[C@H](O)[C@@H](O)[C@H]1O)C3 [Compound 7G, Rebaudioside K] | − | − | − | −
C=C1C[C@@]23CC[C@H]4[C@@](C)(CCC[C@@]4(C)C(=O)N[C@H](C)C(=O)OC)[C@@H]2CC[C@]1(O[C@@H]1O[C@H](CO)[C@@H](O)[C@H](O[C@@H]2O[C@H](CO)[C@@H](O)[C@H](O)[C@H]2O)[C@H]1O[C@@H]1O[C@H](CO)[C@@H](O)[C@H](O)[C@H]1O)C3 [Compound 5C1, Rebaudioside B- D-Alanine Methyl ester] |  | − |  | 
